From US10669269B2, “Substituted N-(1H-indazol-4-yl)imidazo[1,2-a]pyridine-3-carboxamide compounds as type III receptor tyrosine kinase inhibitors” (ARRAY BIOPHARMA INC., priority 2010, dated 2020) come the findings set out here.

One assay has as its target T1, cFMS (Homo sapiens, UniProt P07333).
T1 construct: THP-1 cells (human acute monocytic leukemia cell line) were serum-starved for 4 hours; endogenous in cells; host or cells: THP-1 cells (human acute monocytic leukemia cell line)
The assay is described as follows: cFMS Cell-Based Assay (Example C). The settings on record: averaged IC50; phospho-cFMS in THP-1 cells stimulated with 250 ng/mL recombinant human MCSF; read-out: cFMS Cell ELISA IC50. In a few lines: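 Phosphotyrosine on cFMS, captured from lysates and quantified by ELISA, reads receptor activation after 1 min of 250 ng/mL human MCSF. Beforehand, THP-1 cells were serum-starved for 4 h and exposed to compound for 1 h (9 points, 3-fold, typically up to 5,000 nM). IC50 from a 4-parameter logistic fit as 50 percent of control.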
In general terms: An ELISA detects its analyte on a solid surface through an enzyme-linked reagent.

In the next assay the target is T2, c-KIT (Homo sapiens, UniProt P10721).
T2 construct: M-07e cells (human acute megakaryoblastic leukemia cell line) were serum-starved for 4 hours; endogenous in cells; host or cells: M-07e cells (human acute megakaryoblastic leukemia cell line)
T2 sequence (P10721 26-976): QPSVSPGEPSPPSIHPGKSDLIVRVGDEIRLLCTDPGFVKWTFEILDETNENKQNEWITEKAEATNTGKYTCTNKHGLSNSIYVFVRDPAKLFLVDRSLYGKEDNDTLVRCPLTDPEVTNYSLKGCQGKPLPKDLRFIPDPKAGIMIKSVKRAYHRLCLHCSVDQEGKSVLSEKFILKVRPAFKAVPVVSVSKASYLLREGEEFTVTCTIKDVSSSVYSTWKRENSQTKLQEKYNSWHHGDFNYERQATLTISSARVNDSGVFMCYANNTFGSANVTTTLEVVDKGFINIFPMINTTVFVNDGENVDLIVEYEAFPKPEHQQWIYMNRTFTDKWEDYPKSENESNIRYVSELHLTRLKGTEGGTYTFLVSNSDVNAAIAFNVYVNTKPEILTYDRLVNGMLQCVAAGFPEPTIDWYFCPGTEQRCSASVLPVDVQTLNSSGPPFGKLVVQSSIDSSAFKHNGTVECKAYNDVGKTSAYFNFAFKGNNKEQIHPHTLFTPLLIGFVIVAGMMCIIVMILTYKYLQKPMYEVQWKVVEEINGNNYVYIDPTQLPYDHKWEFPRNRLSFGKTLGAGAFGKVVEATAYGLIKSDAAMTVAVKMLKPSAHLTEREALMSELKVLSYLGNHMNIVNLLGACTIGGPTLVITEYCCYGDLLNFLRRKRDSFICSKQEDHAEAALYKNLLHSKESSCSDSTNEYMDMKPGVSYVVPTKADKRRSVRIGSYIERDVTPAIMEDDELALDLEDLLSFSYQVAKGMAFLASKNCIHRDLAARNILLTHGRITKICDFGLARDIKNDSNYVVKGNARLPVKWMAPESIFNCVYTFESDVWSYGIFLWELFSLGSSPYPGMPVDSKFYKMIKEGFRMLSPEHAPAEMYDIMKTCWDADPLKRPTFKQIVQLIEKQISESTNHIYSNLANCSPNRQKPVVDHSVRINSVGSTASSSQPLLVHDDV
As to the kind of experiment: c-KIT Cell-Based Assay (Example D). The settings on record: averaged IC50; phospho-c-KIT in M-07e cells stimulated with 150 ng/ml recombinant human SCF; read-out: cKIT Cell ELISA IC50. In a few lines: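 Phospho-c-KIT ELISA readout, calibrated with purified phospho-SCF R, gave IC50 (4-parameter fit, 50% of control). Before lysis, M-07e cells were starved 4 h, exposed 1 h to a 9-point 3-fold series (highest usually 5,000 nM), and stimulated with 150 ng/ml SCF for 4 min.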

Assay [1] has as its target T3, PDGFR beta (Homo sapiens, UniProt P09619).
T3 construct: endogenous in cells; host or cells: HS27 human fibroblast cell line
The assay is described as follows: Phospho PDGFR LICOR Cell Assay (Example B). The settings on record: averaged IC50; PDGFR beta phosphorylation in HS27 human fibroblast cell line, PDGF-BB stimulation 10 minutes, normalized to total ERK. Format: cell-based. In a few lines:
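Read-out is in-cell phospho-PDGFRβ/total-ERK infrared immunofluorescence in HS27 fibroblasts. Cells got 1 h compound exposure before a 10 min PDGF-BB challenge. A 4-parameter logistic fit gave IC50 as the concentration yielding 50 percent of control.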

Assay [2] has as its target T3, PDGFR beta. The assay is described as follows: Phospho PDGFR Cell Assay, sandwich ELISA (Example A). The class given is cell-based. Conditions: averaged IC50, PDGFR beta phosphorylation in HS27 human fibroblast cell line, PDGF-BB stimulation 5 minutes. In a few lines:
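HS27 human fibroblasts were pretreated with compound for 1 h, stimulated with PDGF-BB for 5 min, then lysed. Phospho-PDGFR beta was measured by sandwich ELISA, and IC50 was taken as the concentration giving 50 percent of control from a 4-parameter logistic fit.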

The structures appear in SMILES notation. Where a name gives a salt, the structure may show the parent alone.

A word on the IC50: it is the midpoint of a concentration-inhibition curve.

T1 sequence (P07333 20-972): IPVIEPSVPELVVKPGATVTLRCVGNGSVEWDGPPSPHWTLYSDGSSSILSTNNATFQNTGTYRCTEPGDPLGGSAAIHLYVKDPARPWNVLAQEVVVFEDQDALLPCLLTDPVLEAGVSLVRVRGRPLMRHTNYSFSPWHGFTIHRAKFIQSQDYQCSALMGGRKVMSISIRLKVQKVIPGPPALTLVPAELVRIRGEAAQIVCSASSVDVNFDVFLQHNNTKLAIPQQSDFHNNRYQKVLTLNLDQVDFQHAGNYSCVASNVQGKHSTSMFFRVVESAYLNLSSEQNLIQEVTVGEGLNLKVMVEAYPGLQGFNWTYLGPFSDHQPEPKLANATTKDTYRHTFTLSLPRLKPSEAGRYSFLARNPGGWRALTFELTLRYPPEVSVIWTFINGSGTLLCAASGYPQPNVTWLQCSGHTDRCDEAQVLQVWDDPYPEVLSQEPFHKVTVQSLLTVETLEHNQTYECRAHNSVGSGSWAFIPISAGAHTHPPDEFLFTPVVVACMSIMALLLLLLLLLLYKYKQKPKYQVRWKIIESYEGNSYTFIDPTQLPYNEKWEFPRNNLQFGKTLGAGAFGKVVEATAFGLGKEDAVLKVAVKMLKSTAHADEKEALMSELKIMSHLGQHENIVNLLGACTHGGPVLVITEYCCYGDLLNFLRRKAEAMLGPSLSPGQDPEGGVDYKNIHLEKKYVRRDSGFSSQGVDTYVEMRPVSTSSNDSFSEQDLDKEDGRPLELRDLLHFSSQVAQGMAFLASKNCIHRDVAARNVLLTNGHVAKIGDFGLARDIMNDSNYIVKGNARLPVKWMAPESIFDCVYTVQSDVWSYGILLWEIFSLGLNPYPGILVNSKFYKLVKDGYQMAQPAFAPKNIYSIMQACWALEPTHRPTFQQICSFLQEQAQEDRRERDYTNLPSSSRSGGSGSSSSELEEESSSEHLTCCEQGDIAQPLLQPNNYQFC
T3 sequence (P09619 33-1106): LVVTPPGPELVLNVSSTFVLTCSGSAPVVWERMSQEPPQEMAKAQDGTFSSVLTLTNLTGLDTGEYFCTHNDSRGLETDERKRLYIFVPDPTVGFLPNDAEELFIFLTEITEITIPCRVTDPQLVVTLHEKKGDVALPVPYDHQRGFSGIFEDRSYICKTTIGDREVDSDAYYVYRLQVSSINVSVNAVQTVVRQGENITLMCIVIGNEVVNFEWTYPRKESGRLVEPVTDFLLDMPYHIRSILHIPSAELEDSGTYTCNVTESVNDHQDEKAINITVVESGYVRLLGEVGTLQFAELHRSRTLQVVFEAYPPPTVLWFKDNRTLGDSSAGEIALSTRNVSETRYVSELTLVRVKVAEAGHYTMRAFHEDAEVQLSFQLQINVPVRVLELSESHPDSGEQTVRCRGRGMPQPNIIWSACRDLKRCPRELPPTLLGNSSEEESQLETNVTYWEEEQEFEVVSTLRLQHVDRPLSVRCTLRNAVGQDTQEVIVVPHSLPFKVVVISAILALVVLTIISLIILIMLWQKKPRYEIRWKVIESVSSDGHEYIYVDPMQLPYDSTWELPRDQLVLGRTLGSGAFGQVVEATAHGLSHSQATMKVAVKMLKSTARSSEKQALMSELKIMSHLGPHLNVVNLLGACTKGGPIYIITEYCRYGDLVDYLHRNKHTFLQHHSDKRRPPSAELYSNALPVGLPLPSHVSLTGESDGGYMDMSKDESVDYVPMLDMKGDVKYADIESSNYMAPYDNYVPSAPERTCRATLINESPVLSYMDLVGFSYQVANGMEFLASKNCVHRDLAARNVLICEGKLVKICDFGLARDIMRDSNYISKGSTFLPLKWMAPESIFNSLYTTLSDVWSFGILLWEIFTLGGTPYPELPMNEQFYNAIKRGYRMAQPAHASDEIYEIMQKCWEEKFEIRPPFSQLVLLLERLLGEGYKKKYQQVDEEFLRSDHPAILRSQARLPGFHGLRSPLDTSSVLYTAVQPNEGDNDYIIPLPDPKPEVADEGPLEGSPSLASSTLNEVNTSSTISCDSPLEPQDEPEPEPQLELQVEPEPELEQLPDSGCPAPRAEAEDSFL

With `Cc1nn(Cc2ccc(C(F)(F)F)cn2)c2cccc(NC(=O)c3cnc4cc(OCCN5CCN(C(C)C)CC5)ccn34)c12` [Example 44, 7-(2-(4-isopropylpiperazazin-1-yl)ethoxy)-N-(3-methyl-1-((5-(trifluoromethyl)pyridin-2-yl)methyl)-1H-indazol-4-yl)imidazo[1,2-a]pyridine-3-carboxamide], the concentration for half-maximal inhibition (IC50) at cFMS amounted to 0.0227 µM; on c-KIT it was 0.0634 µM; against PDGFR beta [1], 0.794 µM; on PDGFR beta [2], 0.116 µM.
For the compound `Cc1nn(Cc2cccc(C3CC3)n2)c2cccc(NC(=O)c3cnc4cc(OCCN5CCN(C)C(C)(C)C5)ccn34)c12` [Example 19, N-(1-((6-cyclopropylpyridin-2-yl)methyl)-3-methyl-1H-indazol-4-yl)-7-(2-(3,3,4-trimethylpiperazin-1-yl)ethoxy)imidazo[1,2-a]pyridine-3-carboxamide], the IC50 on cFMS was found to be 0.0094 µM; at c-KIT, 0.0391 µM; on PDGFR beta [1] it was 0.247 µM; against PDGFR beta [2] it was 0.0432 µM.
As to `Cc1cc(C)nc(Cn2nc(C)c3c(NC(=O)c4cnc5cc(OCCN6CCN(C)[C@@H](C)C6)ccn45)cccc32)c1` [Example 34, (S)-7-(2-(3,4-dimethylpiperazin-1-yl)ethoxy)-N-(1-((4,6-dimethylpyridin-2-yl)methyl)-3-methyl-1H-indazol-4-yl)imidazo[1,2-a]pyridine-3-carboxamide], the IC50 is 1.67 µM on PDGFR beta [1] and at least 1 µM against PDGFR beta [2].
Turning to `Cc1nn(Cc2cccc(C(C)C)n2)c2cccc(NC(=O)c3cnc4cc(OCCN5CC6(CN(C)C6)C5)ccn34)c12` [Example 4, N-(1-((6-isopropylpyridin-2-yl)methyl)-3-methyl-1H-indazol-4-yl)-7-(2-(6-methyl-2,6-diazaspiro[3.3]heptan-2-yl)ethoxy)imidazo[1,2-a]pyridine-3-carboxamide], the IC50 on cFMS was 0.0294 µM; at c-KIT it was 0.0816 µM; on PDGFR beta [1] it was 0.0107 µM; against PDGFR beta [2], 0.0279 µM.
For the compound `Cc1nn(Cc2cccc(C3CC3)n2)c2cccc(NC(=O)c3cnc4cc(OCCN5CCN(C)CC5)ccn34)c12` [Example 47, N-(1-((6-cyclopropylpyridin-2-yl)methyl)-3-methyl-1H-indazol-4-yl)-7-(2-(4-methylpiperazin-1-yl)ethoxy)imidazo[1,2-a]pyridine-3-carboxamide], the IC50 was 0.0159 µM on cFMS, 0.0485 µM at c-KIT, 0.0065 µM at PDGFR beta [1] and 0.0749 µM against PDGFR beta [2].
The corresponding values for `Cc1nn(Cc2cccc(C3CC3)n2)c2cccc(NC(=O)c3cnc4cc(OCCN5CCN(C(C)C)CC5)ccn34)c12` [Example 16, N-(1-((6-cyclopropylpyridin-2-yl)methyl)-3-methyl-1H-indazol-4-yl)-7-(2-(4-isopropylpiperazin-1-yl)ethoxy)imidazo[1,2-a]pyridine-3-carboxamide] are 0.0139 µM, 0.0348 µM, 0.103 µM and 0.0281 µM.
The corresponding values for `Cc1nn(Cc2cccc(C(C)C)n2)c2cccc(NC(=O)c3cnc4cc(OCCN5CCN(C)[C@H](C)C5)ccn34)c12` [Example 28, (R)-7-(2-(3,4-dimethylpiperazin-1-yl)ethoxy)-N-(1-((6-isopropylpyridin-2-yl)methyl)-3-methyl-1H-indazol-4-yl)imidazo[1,2-a]pyridine-3-carboxamide] are 0.014 µM, 0.0355 µM, 0.0099 µM and 0.0059 µM.
Consider `Cc1nn(Cc2csc(C(C)C)n2)c2cccc(NC(=O)c3cnc4cc(OCCN5CC6(COC6)C5)ccn34)c12` [Example 14, 7-(2-(2-oxa-6-azaspiro[3.3]heptan-6-yl)ethoxy)-N-(1-((2-isopropylthiazol-4-yl)methyl)-3-methyl-1H-indazol-4-yl)imidazo[1,2-a]pyridine-3-carboxamide], for which the IC50 came out at 0.0206 µM at cFMS, 0.0964 µM on c-KIT, 0.0366 µM against PDGFR beta [1] and 0.0377 µM on PDGFR beta [2].
`Cc1cccc(CCn2nc(C)c3c(NC(=O)c4cnc5cc(OCCN6CCN(C)[C@@H](C)C6)ccn45)cccc32)n1` [Example 42, (S)-7-(2-(3,4-dimethylpiperazin-1-yl)ethoxy)-N-(3-methyl-1-(2-(6-methylpyridin-2-yl)ethyl)-1H-indazol-4-yl)imidazo[1,2-a]pyridine-3-carboxamide]: the IC50 against PDGFR beta [1] is 4.8 µM; against PDGFR beta [2] it was at least 1 µM.
With `Cc1nn(Cc2cccc(C(C)C)n2)c2cccc(NC(=O)c3cnc4cc(OCCN5CCN(C(C)C)CC5)ccn34)c12` [Example 6, 7-(2-(4-Isopropylpiperazin-1-yl)ethoxy)-N-(1-((6-isopropylpyridin-2-yl)methyl)-3-methyl-1H-indazol-4-yl)imidazo[1,2-a]pyridine-3-carboxamide], the IC50 on cFMS was 0.0409 µM; on c-KIT, 0.057 µM; at PDGFR beta [1], 0.0063 µM; at PDGFR beta [2] it was 0.0335 µM.
The corresponding values for `Cc1nn(Cc2cccc(C(C)C)n2)c2cccc(NC(=O)c3cnc4cc(OCCN5CCN(C)[C@@H](C)C5)ccn34)c12` [Example 25, (S)-7-(2-(3,4-dimethylpiperazin-1-yl)ethoxy)-N-(1-((6-isopropylpyridin-2-yl)methyl)-3-methyl-1H-indazol-4-yl)imidazo[1,2-a]pyridine-3-carboxamide] are 0.0238 µM, 0.0514 µM, 0.018 µM and 0.0418 µM.
In the same order, the values of `Cc1nn(Cc2cccc(C(C)C)n2)c2cccc(NC(=O)c3cnc4cc(OCCN5CC6(CNC6)C5)ccn34)c12` [Example 3, 7-(2-(2,6-diazaspiro[3.3]heptan-2-yl)ethoxy)-N-(1-((6-isopropylpyridin-2-yl)methyl)-3-methyl-1H-indazol-4-yl)imidazo[1,2-a]pyridine-3-carboxamide trihydrochloride] are 0.0704 µM, 0.176 µM, 0.01 µM and 0.138 µM.
For the compound `Cc1nn(Cc2cccc(C(C)C)n2)c2cccc(NC(=O)c3cnc4cc(OCCN5CC6(COC6)C5)ccn34)c12` [Example 5, 7-(2-(2-oxa-6-azaspiro[3.3]heptan-6-yl)ethoxy)-N-(1-((6-isopropylpyridin-2-yl)methyl)-3-methyl-1H-indazol-4-yl)imidazo[1,2-a]pyridine-3-carboxamide], the IC50 at cFMS came out at 0.0279 µM; at c-KIT it was 0.0828 µM; against PDGFR beta [1], 0.022 µM; at PDGFR beta [2], 0.0205 µM.
In the same order, the values of `Cc1nn(Cc2cccc(C3CC3)n2)c2cccc(NC(=O)c3cnc4cc(OCCN5CCOCC5)ccn34)c12` [Example 18, N-(1-((6-cyclopropylpyridin-2-yl)methyl)-3-methyl-1H-indazol-4-yl)-7-(2-morpholinoethoxy)imidazo[1,2-a]pyridine-3-carboxamide] are 0.0102 µM, 0.0818 µM, 0.674 µM and 0.0599 µM.
In the same order, the values of `Cc1nn(Cc2cccc(C3CC3)n2)c2cccc(NC(=O)c3cnc4cc(OCCN5CCN(C)[C@H](C)C5)ccn34)c12` [Example 27, (R)—N-(1-((6-cyclopropylpyridin-2-yl)methyl)-3-methyl-1H-indazol-4-yl)-7-(2-(3,4-dimethylpiperazin-1-yl)ethoxy)imidazo[1,2-a]pyridine-3-carboxamide dihydrochloride] are 0.0138 µM, 0.0362 µM, 0.0726 µM and 0.0695 µM.
In the same order, the values of `Cc1nn(Cc2cccc(C(C)C)n2)c2cccc(NC(=O)c3cnc4cc(OCCN5CCOCC5)ccn34)c12` [Example 1, N-(1-((6-isopropylpyridin-2-yl)methyl)-3-methyl-1H-indazol-4-yl)-7-(2-morpholinoethoxy)imidazo[1,2-a]pyridine-3-carboxamide] are 0.0161 µM, 0.0533 µM, 0.0129 µM and 0.0297 µM.
For the compound `Cc1nn(Cc2cccc(C3CC3)n2)c2cccc(NC(=O)c3cnc4cc(OCCN5CCN(C)[C@@H](C)C5)ccn34)c12` [Example 26, (S)—N-(1-((6-cyclopropylpyridin-2-yl)methyl)-3-methyl-1H-indazol-4-yl)-7-(2-(3,4-dimethylpiperazin-1-yl)ethoxy)imidazo[1,2-a]pyridine-3-carboxamide dihydrochloride], the IC50 was determined as 0.0137 µM at cFMS, 0.0279 µM on c-KIT, 0.0632 µM against PDGFR beta [1] and 0.0296 µM against PDGFR beta [2].
